Test results: article PMC5175396, “Cytotoxicity of Plumbagin, Rapanone and 12 other naturally occurring Quinones from Kenyan Flora towards human carcinoma cells” (BMC Pharmacology & Toxicology, 2016)

Tests used:
Assay type in all cases: cell-based, human
[1] = system: MCF-7 breast adenocarcinoma cells; assay: Neutral red (NR) uptake cytotoxicity assay, MCF-7; conditions: for IC50: Homo sapiens, MCF7, 72 h, neutral red assay, 72 h incubation, read-out: IC50 MCF-7; for selectivity index MCF-7: IC50 in CRL2120 normal fibroblasts divided by IC50 in MCF-7
Description: (§1) Six human cancer cell lines and one normal cell line were used in this study. They included A549 human non-small cell lung cancer (NSCLC) cell line, obtained from the Institute for Fermentation, Osaka (IFO, Japan) and provided by Prof. Dr. Tansu Koparal (Anadolu University, Eskisehir, Turkey), SPC212 human mesothelioma cell line obtained from American Type Culture Collection (ATCC) and provided by Dr. Asuman Demiroğlu Zergeroğlu (Gebze Technical University, Kocaeli, Turkey), DLD-1 colorectal adenocarcinoma cell lines obtained from ATCC (CCL-221), Caco2 colorectal adenocarcinoma cells (ATCC, HTB-37) obtained from the ŞAP Institute of Turkey (Ankara), HepG2 hepatocarcinoma cells (ATCC, HB-8065) and MCF-7 breast adenocarcinoma cells (ATCC, HTB-22) were provided by Prof. Dr. Tansu Koparal (Anadolu University, Eskisehir, Turkey). The normal CRL2120 human skin fibroblasts were obtained from ATCC [CCD1094Sk (ATCC, CRL-2120)]. The cells were maintained as a monolayer in DMEM medium (Sigma-aldrich, Munich, Germany) medium supplemented with 10% fetal calf serum and 1% penicillin (100 U/mL)-streptomycin (100 μg/mL) in a humidified 5% CO2 atmosphere at 37 °C.
(§2) The cytotoxicity of samples was performed by NR uptake assay as previously described. This method is based on the ability of viable cells to incorporate and bind the supravital dye NR in the lysosomes. The procedure is cheaper and more sensitive than other cytotoxicity tests. […] Briefly, cells were detached by treatment with 0.25% trypsin/EDTA (Invitrogen) and an aliquot of 1 × 10^4 cells was placed in each well of a 96-well cell culture plate […]. The cells were allowed to attach overnight and subsequently treated with different concentrations of the 14 compounds. Each of the studied samples was immediately added in varying concentrations in additional 100 μL of culture medium to obtain a total volume of […]/well. After 72 h incubation in humidified 5% CO2 atmosphere at 37 °C, the medium was removed and 200 μL fresh medium containing 50 μg/mL NR was added to each well and incubation continued for an additional 3 h at 37 °C in 5% CO2 atmosphere. The dye medium was then removed and each well was then washed rapidly with 200 μL phosphate buffer saline (PBS) followed by addition of 200 μL of acetic acid-water-ethanol in water (1:49:50). The plates were kept for 15 min at room temperature to extract the dye and then shaken for a few minutes on a GFL 3012 shaker (Gesellschaft für Labortechnik mbH, Burgwedel, Germany). Absorbance was measured on ELx 808 Ultra Microplate Reader (Biotek) equipped with a 540 nm filter. Each assay was done at least three times, with three replicates each. The viability was evaluated based on a comparison with untreated cells. The IC50 values represent the sample’s concentrations required to inhibit 50% of cell proliferation and were calculated from a calibration curve by linear regression using Microsoft Excel.

MCF-7 cells [2] = assay: Mitochondrial membrane potential (MMP) analysis, JC-1 staining, flow cytometry; conditions: IC50 (C3), 72 h, control 4.3%
Protocol: The MMP was analyzed in MCF-7 cells by 5,5′,6,6′-tetrachloro-1,1′,3,3′-tetraethylbenzimidazolylcarbocyanine iodide) (JC-1; Biomol, Hamburg, Germany) staining as previously reported. […] Subsequently, cells were measured in a BD FACS Aria I Cell Sorter Flow Cytometer (Becton-Dickinson, Germany). The JC-1 signal was measured at an excitation of 561 nm (150 mW) and detected using a 586/15 nm band-pass filter. The signal was analyzed at 640 nm excitation (40 mW) and detected using a 730/45 nm bandpass filter. Cytographs were analyzed using BD FACSDiva™ Flow Cytometry Software Version 6.1.2 (Becton-Dickinson). All experiments were performed at least in triplicate.

MCF-7 cells [3] = assay: Measurement of reactive oxygen species (ROS), DCFH-DA; conditions: at IC50, 24 h
Protocol: This is a cell-based assay for measuring hydroxyl, peroxyl, or other reactive oxygen species activity within a cell. The assay employs the cell-permeable fluorogenic probe 2′,7′-dichlorodihydrofluorescin diacetate (DCFH-DA). DCFH-DA is diffused into cells and is deacetylated by cellular esterases to non-fluorescent 2′,7′-dichlorodihydrofluorescin (DCFH), which is rapidly oxidized to highly fluorescent 2′,7′-dichlorofluorescein (DCF) by ROS. […] After addition of 100 μL 1× DCFH-DA/DMEM solution to cells and incubation at 37 °C for 30–60 min, the fluorescence was measured using SpectraMax® M5 Microplate Reader (Molecular Devices, Biberach, Germany) at 480/530 nm. All experiments were performed at least in triplicate.

MCF-7 cells [4] = assay: Flow cytometry cell cycle analysis and detection of apoptotic cells; conditions: for Sub-G0/G1 (apoptotic) cells, % of cells: non-treated cells 3.1%; for cell cycle arrest: ¼ × IC50 to IC50, 72 h
Protocol: The cell-cycle analysis was performed by flow cytometry using BD cycletest^TM Plus DNA Kit Assay (BD Biosciences, San Jose, USA). The BD Cycletest™ Plus DNA kit provides a set of reagents for isolating and staining cell nuclei. Flow cytometric analysis of differentially stained cells is used to estimate the DNA index (DI) and cell-cycle phase distributions. Briefly, MCF-7 cells (3 mL, 1 × 10^5 cells/mL) were seeded into each well of 6-well plates and allowed to attach for 24 h. […] The untreated cells (control) were also included in the assay. They were further trypsinized and suspended in 1 mL PBS, then centrifuged at 400 g for 5 min at room temperature (RT). The cells were further processed according to the manufacturer protocol: addition of 250 μL of solution A (trypsin buffer), 10 min incubation at RT followed by the addition of 200 μL of solution B (trypsin inhibitor and RNAse buffer), 10 min incubation at RT followed by the addition of 200 μL of solution C (2–8 °C) (propidium iodide stain solution), 10 min on ice. The cells were further measured on a BD FACS Aria I Cell Sorter Flow Cytometer (Becton-Dickinson, Germany). For each sample, 10^4 cells were counted. For PI excitation, an argon-ion laser emitting at 488 nm was used. Cytographs were analyzed using BD FACSDiva™ Flow Cytometry Software Version 6.1.2 (Becton-Dickinson).

[5] = system: HepG2 hepatocarcinoma cells; assay: Neutral red (NR) uptake cytotoxicity assay, HepG2; conditions: for IC50: Homo sapiens, HepG2, neutral red assay, 72 h incubation, read-out: IC50 HepG2; for selectivity index HepG2: IC50 in CRL2120 normal fibroblasts divided by IC50 in HepG2
Description: as §1, §2

caspase 9 in MCF-7 cells = assay: Caspase-Glo 9 assay; conditions: IC50 and 2-fold IC50, 6 h (data not shown)
Protocol: Caspases activity in MCF-7 cells was detected using Caspase-Glo 3/7 and Caspase-Glo 9 Assay kits (Promega, Mannheim, Germany) as previously reported. […] Luminescence was measured using an BioTek Synergy™ HT multi-detection microplate reader. Caspase activity was expressed as percentage of the untreated control.

Compound	IC50 [1] [µM]	selectivity index MCF-7 [1]	MMP, gate P2 (loss / depletion of MMP) (MCF-7 cells [2]) [%]	increase in ROS levels as compared with non-treated cells (MCF-7 cells [3])	Sub-G0/G1 (apoptotic) cells, % of cells (MCF-7 cells [4]; 1/4xIC50, 72 h) [%]	Sub-G0/G1 (apoptotic) cells, % of cells (MCF-7 cells [4]; IC50, 72 h) [%]	cell cycle arrest (MCF-7 cells [4])	IC50 [5] [µM]	selectivity index HepG2 [5]	activity of caspase 9 (caspase 9 in MCF-7 cells)
CC1=CC(=O)c2c(O)cccc2C1=O [Compound 4, 5-hydroxy-2-methyl-1,4-naphthalenedione]	0.06 ± 0.01	1127.67	12.2	more than 3 fold	10.4	20.4	cell cycle arrest between G0/G1 and S phases	1.01 ± 0.08	66.99	no modification
CCCCCCCCCCCCCC1=C(O)C(=O)C=C(O)C1=O [Compound 9, 2,5-dihydroxy-3-tridecyl-2,5-cyclohexadiene-1,4-dione]	16.9 ± 4.65	5.62	88.1	less than 2 fold	34.8	43.2	cell cycle arrest between G0/G1 and S phases	32.7 ± 0.61	2.91	no modification
